Results as given in the METLIN SMRT retention time set (Domingo-Almenara et al. 2019).

Test: gradient 5% acetonitrile 3 min, to 50% in 2 min, to 85% in 15 min, held 3 min, 100 µL/min
Details: column: Zorbax Extend-C18 2.1 x 50 mm; eluents: water / acetonitrile, 0.1% formic acid
In short: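 Pure standards were analyzed in mixtures of ~100 molecules using HPLC coupled to a quadrupole time-of-flight mass spectrometer, in both positive and negative ionization mode. Separation used a Zorbax Extend-C18 column (2.1 × 50 mm, 1.8 μm) at 100 μL/min, with water and acetonitrile each containing 0.1% formic acid. Dead and dwell volumes were 40 μL and 900 μL, and data were collected over 3 months. Retention time was read from computationally picked adduct peaks, each inspected manually.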

| SMILES | RP-LC retention time |
| --- | --- |
| CCOc1ccc(N2C=C(C(=O)OC)S(=O)(=O)c3cc(F)ccc32)cc1 | 924 s |
| Cn1cnc(C(=O)N2CC(F)(F)C[C@H]2c2nc(C3CC3)no2)c1 | 667 s |
| CCn1c(=O)c(N2CCCC(C(=O)NCCCN3CCOCC3)C2)nc2cccnc21 (stereo not given) | 621 s |
| COc1ccc(S(=O)(=O)NCc2ccc3c(c2)CCN3C(=O)c2ccccc2)cc1OC | 824 s |
| CCOC(=O)c1nc(N(C)c2ccccc2CC)c2ccccc2n1 | 1010 s |
| COC[C@@H]1CN(Cc2c(OC)cccc2OC)C[C@H]1c1ccncc1 | 656 s |
| CN(C)c1ccc(C(=O)NCC(C)(O)c2ccco2)cc1 (stereo not given) | 665 s |
| Cc1ccc(-c2noc(-c3ccc(N4CCN(Cc5ccc6c(c5)OCO6)CC4)nc3)n2)cc1 | 874 s |
| COc1ccc(OCc2noc(CNS(=O)(=O)c3ccc(NC(C)=O)cc3)n2)cc1 | 710 s |
| Cn1c(SCC(=O)Nc2ncn[nH]2)nc2ccsc2c1=O | 583 s |
| O=C(NCc1cc(-c2ccccc2F)on1)c1ccccc1Br | 810 s |
| Cc1cccc(Nc2nc(-c3ccc(F)c(C)c3)cs2)n1 | 992 s |
| Cc1nnc(N2CCN(C(=O)Nc3ccc4c(c3)OCCO4)CC2)c2nn(-c3ccccc3)c(C)c12 | 679 s |
| O=C(NCCc1csc(-c2cccs2)n1)C1CCN(S(=O)(=O)Cc2ccccc2)CC1 | 855 s |
| Cc1csc(NC(=O)C2CCN(S(=O)(=O)c3cc(C(=O)N4CCOCC4)cs3)CC2)n1 | 702 s |
| CCOc1ccc(S(=O)(=O)N2CCCC(C(=O)N3CCN(c4ccccc4)CC3)C2)cc1 (stereo not given) | 1020 s |
| Cc1nc(OCC(=O)NCc2ccc3c(c2)OCO3)c2ccccc2n1 | 698 s |
| O=c1c2nc(-c3ccccc3)cn2ccn1-c1cccc(Cl)c1 | 852 s |
| COc1cccc(Nc2n[nH]nc2C(=O)Nc2ccccc2Br)c1 | 1060 s |
| O=C(c1ccsc1)N1CCN(c2nnc3c(Cl)cccn23)CC1 | 635 s |
| COc1cc(C(=O)Nc2ncc(Cc3cccc4ccccc34)s2)cc(OC)c1OC | 1030 s |
| COc1cccc(-n2c(N3CCCC(C(=O)NCC(C)C)C3)nc3ccsc3c2=O)c1 (stereo not given) | 818 s |
| CCCn1cc(CCNC(=O)Nc2cc(Cl)ccc2Cl)c2cccnc21 | 963 s |

| SMILES | RP-LC retention time |
| --- | --- |
| Cc1ccc2cc(CCC(=O)NCc3nc4ccccc4n3C)c(=O)[nH]c2c1 | 617 s |
| COc1cc(Cl)ccc1C(=O)N1CCN(c2cc(-c3cccs3)[nH]n2)CC1 | 795 s |
| O=S(=O)(NCCN1CCOC(c2ccccc2)C1)c1ccc2c(c1)CCCC2 (stereo not given) | 632 s |
| Cc1cccc(-n2ncc3c(N4CCN(CCO)CC4)ncnc32)c1 | 622 s |
| O=C(Nc1cccc(F)c1)c1nnc(C(=O)N2CCC(C(=O)NC3CCCC3)CC2)s1 | 786 s |
| CCCn1ccc2sc(C)c(C(=O)NCCN3CCCCCC3)c2c1=O | 657 s |
| COc1ccccc1Nc1c(-c2ccc(SC)cc2)nc2cnccn12 | 974 s |
| Cc1ccc2c(c1)N(S(C)(=O)=O)CCC(C(=O)Nc1ccc(Cl)cc1C)O2 (stereo not given) | 1000 s |
| c1ccc(-c2n[nH]c(C3CCCN3)n2)cc1 (stereo not given) | 546 s |
| CCn1ccc(-c2nc(CCS(=O)(=O)c3ccccc3)no2)n1 | 768 s |
| CN(CC(=O)N1CCN(c2ccccc2F)CC1)S(=O)(=O)c1c[nH]c(C(=O)N2CCCCC2)c1 | 836 s |
| OC1(c2ccccn2)CCOC2(CCN(Cc3ccc(Cl)c(F)c3)CC2)C1 (stereo not given) | 591 s |
| Cc1ccc(C)c(NS(=O)(=O)c2cc3n(c2)CCN(C)C3=O)c1 | 707 s |
| CN(C)C(=O)c1n[nH]c2c1CN(C(=O)c1ccc(F)cc1F)CC2 | 629 s |
| COc1ccc(Oc2ncc(-c3ccc(C(=O)NC4CC4)cc3)cn2)cc1 | 774 s |
| O=C(c1ccsc1)N1CCCn2cc(-c3ccccc3)nc21 | 640 s |
| Fc1ccc(Cl)cc1CN1CC(COc2cccnc2)C2(CCOCC2)C1 (stereo not given) | 566 s |
| Cc1ncsc1CN1CCCC(c2nncn2-c2ccccc2)C1 (stereo not given) | 496 s |
| O=C(Cc1cccs1)N1CCCC(c2ccnc(-c3ccc(F)cc3)n2)C1 (stereo not given) | 1050 s |
| Cc1nnc(N2CCCC(C(=O)NCc3cccnc3)C2)c2nn(-c3ccccc3)c(C)c12 (stereo not given) | 579 s |
| CCNc1nc(-c2ccccc2F)no1 | 761 s |
| COCCNC(=O)C1Cc2cc(C(F)(F)F)ccc2N2CCN(C(=O)c3ccco3)CC12 (stereo not given) | 767 s |
| CCn1ccc2sc(C)c(C(=O)NCc3cccc(OC)c3)c2c1=O | 785 s |

| SMILES | RP-LC retention time |
| --- | --- |
| O=C(NC1CC(=O)N(Cc2ccccc2)C1)c1ccco1 (stereo not given) | 667 s |
| O=C(c1ccc2ccnc(N3CCN(c4ccc(F)cc4)CC3)c2c1)N1CCCCCC1 | 816 s |
| COCCN1C(=O)Cc2ccccc2C1C(=O)NCc1ccc(C(C)C)cc1 (stereo not given) | 861 s |
| CCc1ccc(NC(=O)C2CCN(c3c(C(=O)N(CC)CC)cnc4snc(C)c34)CC2)cc1 | 687 s |
| COc1ccc(N2CCOCC2)c2sc(NC(=O)N3CCC(C)(O)CC3)nc12 | 732 s |
| COc1cccc(-c2csc(Nc3ccc(Br)cn3)n2)c1 | 1170 s |
| Cc1nc(C)c(C(=O)N2CCC(C3CCN(S(C)(=O)=O)CC3)C2)s1 (stereo not given) | 656 s |
| CCc1ccc(Nc2nc(C(=O)NCCc3ccco3)nc3ccccc23)cc1 | 855 s |
| COc1ccc(C)cc1NS(=O)(=O)c1ccc2c(c1)C(=O)N(C)c1ncccc1O2 | 933 s |
| CCn1c(=O)c2cc(C(=O)Nc3ccc(OC)c(OC)c3)nn2c2ccccc21 | 837 s |
| O=C(Cn1ccc2c(SCc3ccccc3)nccc21)N1CCN(c2ccc(F)cc2)CC1 | 786 s |
| COCCn1cc(CCNC(=O)Nc2ccc(Br)c(C)c2)c2cccnc21 | 821 s |
| CC(C)C(=O)Nc1cc2c(cc1N(C)C)n(C)c(=O)c(=O)n2C | 631 s |
| CN1c2cc(Cl)ccc2C(=O)NC12CCN(C(=O)NCc1cccc(F)c1)CC2 | 1010 s |
| N#CCn1cccc1-c1nc(-c2cccnc2)no1 | 776 s |
| CC(=O)N1c2ccc(S(=O)(=O)N3CCCCCC3)cc2CC1C(=O)NC(C)c1ccccc1 (stereo not given) | 925 s |
| COC(=O)c1cn(CC(=O)N2CCc3ccccc3C2)c2ccccc12 | 964 s |
| Cc1ccccc1Nc1cc(C)n2c(=O)n(Cc3cccnc3)nc2n1 | 750 s |
| NCCC1CCN(C(=O)Nc2cc(F)cc(F)c2)CC1 | 599 s |
| CN1CCC(OC2CCN(C(=O)c3ccc(Cl)cc3)CC2)CC1 | 601 s |
| Cc1noc(CNC(=O)c2cc(C)on2)n1 | 592 s |
| COc1ccc(OC)c(NC(=O)N2CCC(N3CCN(Cc4ccccc4)C(=O)C3=O)CC2)c1 | 746 s |
| O=C(NCCc1ccccc1)N1CCN(c2cc(-c3ccncc3)[nH]n2)CC1 | 607 s |

| SMILES | RP-LC retention time |
| --- | --- |
| COC(=O)c1cnc2nc(C)ccc2c1Nc1cc(Cl)ccc1C | 716 s |
| Cc1nnc(NC(=O)C2CCN(C(=O)c3ccc(F)cc3)CC2)s1 | 624 s |
| O=C(C1CC(=O)N(c2n[nH]c3ccccc23)C1)N1CCN(CCc2ccccn2)CC1 (stereo not given) | 551 s |
| CC1CCCN(c2ccn3c(=O)n(CC(=O)NCc4ccc(F)cc4F)nc3n2)C1 (stereo not given) | 772 s |
| O=C(NC1CC1)[C@@H]1C[C@H](Oc2ccccc2)CN1C(=O)COc1ccc(F)cc1 | 813 s |
| Cc1cc(Cl)ccc1OCc1nc(-c2ccc3c(c2)nnn3CCC(=O)N2CCCCCC2)no1 | 1180 s |
| Cc1oc(-c2[nH]ncc2C(=O)N(C)C)cc1S(=O)(=O)N1CCOCC1 | 604 s |
| CCOC(=O)C1=C(CN2CCN(Cc3ccc4c(c3)OCO4)CC2)NC(=O)NC1c1ccc(C)cc1 (stereo not given) | 585 s |
| COc1cccc(NC(=O)N2CCCC(C)(C(=O)NCc3ccccc3C)C2)c1 (stereo not given) | 890 s |
| CCC(=O)Nc1ccc2c(c1)CN(C(=O)c1ccccc1Cl)C(C(=O)N1CCCC1)C2 (stereo not given) | 714 s |
| NC(=O)Cc1ccc2c(c1)[nH]c1ccccc12 | 756 s |
| Cn1c(CC2CCN(S(=O)(=O)Cc3ccc(F)cc3Cl)C2)nc2cccnc21 (stereo not given) | 650 s |
| Cc1ccc(CC(=O)Nc2ccc(-c3nc(Cn4nc(C)c(C)c4C)c(C)o3)cc2)cc1 | 998 s |
| O=C(COc1ccc(F)cc1)Nc1ccccc1NC(=O)c1ccccc1Cl | 853 s |
| COc1cccc(Nc2c(-c3ccc(SC)cc3)nc3cnccn23)c1 | 912 s |
| O=c1c2nc(-c3ccc(F)cc3)cn2ccn1-c1ccc(Cl)cc1 | 867 s |
| CS(=O)(=O)c1ccc(NC(=O)Cn2cnc3c(sc4nc(-c5ccccc5)ccc43)c2=O)cc1 | 862 s |
| CCNC(=O)C1CCN(S(=O)(=O)c2c(C)[nH]c(C)c2C(=O)N2CCCCC2)CC1 | 624 s |
| CC(C)NC(=O)Cn1c(C2CCCO2)nc2ccccc21 (stereo not given) | 585 s |
| Cc1nn(-c2ccc(F)cc2)c2nc(N3CCCC(C(=O)NC4CCCCCC4)C3)sc12 (stereo not given) | 1240 s |
| Cc1cc(NC(=O)C2CCCN(c3nccnc3Oc3ccccc3)C2)ccc1Br (stereo not given) | 989 s |
